Measured values as given in patent publication US20130204009A1, “PROCESS FOR PREPARING BENZOIC ACID ESTERS” (Daiichi Sankyo Company, Limited, priority 2010, published 2013).

Target: T1, GAL4-PPARγ chimeric receptor (ligand-binding domain of human PPARγ) (Homo sapiens, UniProt P37231)
T1 construct: expressed in transfected cells; host or cells: COS-7 (monkey kidney)
Assay: Measurement of PPARγ activation effect/modulator activity (GAL4-PPARγ luciferase reporter assay in COS-7 cells)
Format: cell-based
Settings: for Emax: COS-7, maximum luciferase activity, rosiglitazone positive control = 100%, DMSO control = 0%; for EC50: COS-7 cells transfected with pM-PPARγ and pFR-Luc, concentration giving Emax/2
Procedure: A test was carried out according to the reporter assay method with reference to a report by Kliewer et al. (Journal of Biological Chemistry, 1995, Vol. 270 (22), p. 12953-12956) as a method for measuring the ability of a compound to activate PPARγ (hereinafter PPARγ activation effect/modulator activity). Commercially available reagents and kits were used according to the attached instructions. The details will be shown below.
The ligand-binding domain of human PPARγ (corresponding to about 300 amino acids at the carboxy end) was bound to the DNA-binding domain of the yeast transcription factor GAL4 (corresponding to 147 amino acids at the amino end) with reference to the report by Kliewer et al. to prepare a gene expressing a GAL4-PPARγ receptor.
The plasmid pM-PPARγ obtained by the above operation includes the nucleotide sequence represented by SEQ ID NO: 4 of the Sequence Listing and encodes an amino acid sequence represented by SEQ ID NO: 5 of the Sequence Listing containing amino acids 1 to 147 of the yeast transcription factor GAL4 at the amino end and containing amino acids 175 to 475 of human PPARγ and a stop codon at the carboxy end. The plasmid is a gene that can express a GAL4-PPARγ chimeric receptor in mammalian cells.
The previously acquired plasmid pM-PPARγ and the plasmid pFR-Luc purchased from Stratagene Cloning Systems, Inc. were dissolved in deionised water at a concentration of 1 mg/mL each.
The monkey kidney-derived cell line COS-7 (American Type Culture Collection CRL-1651) was seeded into a 75 cm^2 culture flask and cultured using Dulbecco's modified Eagle's medium containing 10% fetal bovine serum (hereinafter medium) under the conditions of 37° C. and 5% carbon dioxide gas until an approximately 80% confluent state was obtained.
COS-7 cells were transfected with 4.8 micrograms per flask of the plasmid pM-PPARγ and 19.2 μg per flask of the plasmid pFR-Luc using Lipofectamine 2000 transfection reagent (manufactured by Invitrogen Corporation), and the cells were cultured overnight.
On the following day, the cells were harvested by trypsin treatment, suspended in 75 mL of phenol red-free Dulbecco's modified Eagle's medium containing 10% fetal bovine serum, seeded into a white 96-well plate (manufactured by Costar) using the medium in a volume of 95 μL per well, and cultured overnight.
The test compound was dissolved in dimethyl sulfoxide at a concentration of 4 mM. The solution was serially diluted 3.3-fold with dimethyl sulfoxide to prepare solutions of the compound at concentrations up to 400 nM. Dimethyl sulfoxide was prepared for the control group. Rosiglitazone dissolved in dimethyl sulfoxide at a concentration of 4 mM was prepared for the positive control group. They were diluted 20-fold with the medium, and 5 μL of the dilution was added to the wells in which the cells were grown. The concentrations of the test compound treating the cells ranged from 10 μM to 1 nM. After the addition, the cells were cultured overnight.
On the following day, the medium was removed, and Luc Lite (manufactured by PerkinElmer Inc.) was prepared according to the attached document and added at 50 microliters per well. The plate with cells in the Luc Lite was stirred for about 30 minutes. The amount of luminescence in each well was measured as luciferase activity using Analyst (Molecular Devices) for 0.5 second. A dose-dependent curve was drawn.

T1 sequence (P37231 with tags, fused parts or gaps): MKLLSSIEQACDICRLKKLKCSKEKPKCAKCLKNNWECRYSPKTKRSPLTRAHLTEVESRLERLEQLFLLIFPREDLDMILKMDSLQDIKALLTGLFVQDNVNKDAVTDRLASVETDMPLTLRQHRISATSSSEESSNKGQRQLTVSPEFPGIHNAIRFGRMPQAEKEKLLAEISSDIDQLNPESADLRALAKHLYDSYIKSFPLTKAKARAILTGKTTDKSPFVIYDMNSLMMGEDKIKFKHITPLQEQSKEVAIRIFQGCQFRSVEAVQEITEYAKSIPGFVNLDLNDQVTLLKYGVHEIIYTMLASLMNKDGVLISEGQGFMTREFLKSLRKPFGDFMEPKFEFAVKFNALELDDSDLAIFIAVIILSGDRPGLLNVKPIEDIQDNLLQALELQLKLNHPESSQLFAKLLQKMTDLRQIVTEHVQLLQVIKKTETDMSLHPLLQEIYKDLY

Structure (SMILES) | Emax [%] | EC50 [pM]
Cc1cc(C)c(Oc2ccc3nc(COc4cccc(C(=O)O)c4)n(C)c3c2)nc1C [Reference Example 15, 3-({1-Methyl-6-[(3,5,6-trimethylpyridin-2-yl)oxy]-1H-benzimidazol-2-yl}methoxy)benzoic acid] | 94 | 120000
CCc1cnc(Oc2ccc3nc(COc4cccc(C(=O)O)c4)n(C)c3c2)c(C)c1 [Reference Example 11, 3-({6-[(5-Ethyl-3-methylpyridin-2-yl)oxy]-1-methyl-1H-benzimidazol-2-yl}methoxy)benzoic acid] | 82 | 260000
Cc1cc(F)cnc1Oc1ccc2nc(COc3cccc(C(=O)O)c3)n(C)c2c1 [Reference Example 8, 3-({6-[(5-Fluoro-3-methylpyridin-2-yl)oxy]-1-methyl-1H-benzimidazol-2-yl}methoxy)benzoic acid] | 100 | 100000

Now those with a lower EC50, led by results:

Emax [%] | EC50 [pM] | Structure (SMILES)
83 | 71000 | CCc1cc(C)cnc1Oc1ccc2nc(COc3cccc(C(=O)O)c3)n(C)c2c1 [Reference Example 12, 3-({6-[(3-Ethyl-5-methylpyridin-2-yl)oxy]-1-methyl-1H-benzimidazol-2-yl}methoxy)benzoic acid]
67 | 69000 | COc1c(C)cnc(Oc2ccc3nc(COc4cccc(C(=O)O)c4)n(C)c3c2)c1C [Reference Example 14, 3-({6-[(4-Methoxy-3,5-dimethylpyridin-2-yl)oxy]-1-methyl-1H-benzimidazol-2-yl}methoxy)benzoic acid]
74 | 43000 | Cc1cnc(Oc2ccc3nc(COc4cccc(C(=O)O)c4)n(C)c3c2)c(F)c1 [Reference Example 9, 3-({6-[(3-Fluoro-5-methylpyridin-2-yl)oxy]-1-methyl-1H-benzimidazol-2-yl}methoxy)benzoic acid]
